This note sets out measurements from patent US20080207885A1, “Method for site-specific labeling of RNA using a deoxyribozyme” (priority 2007, published 2008).

Holding throughout (format): biochemical
Experiment [1] concerns 10DM24 deoxyribozyme. Put plainly: 10DM24-catalyzed ligation of small-molecule NTP substrate to branch-site adenosine of RNA substrate L with cofactor RΔ. Particulars: for kobs,enh/kobs,std: GTP series; for krel = kobs,NTP*/kobs,NTP: relative to GTP. As to the method: (§1) General Description of Kinetic Assays. All kinetic assays with the 10DM24 deoxyribozyme and its variants were performed according to established methods (Flynn-Charlebois, et al. (2003) supra; Wang and Silverman (2003) supra). The 5′-^32P-labeled RNA substrate (L for “left-hand substrate”) that provides the branch-site adenosine was the limiting reagent relative to 10DM24 (E) and the truncated cofactor RNA (RΔ; R originally derived from “right-hand substrate”). The ratio L:E:RΔ was 1:10:30, with 0.25 μM 10DM24. The cofactor RΔ was 5′-phosphorylated unless otherwise stated. The RNA substrate L, deoxyribozyme 10DM24 and cofactor RΔ were annealed in 5 mM HEPES, pH 7.5, 15 mM NaCl, 0.1 mM EDTA by heating at 95° C. for 3 minutes and cooling on ice for 5 minutes. The ligation reactions were performed with the appropriate concentration of NTP substrate (0.05-50 mM) at a final buffer concentration of 100 mM CHES, pH 9.0, 150 mM NaCl, 2 mM KCl, and 40-400 mM MgCl2 at 37° C. for up to 5 hours. The combination of 1 mM NTP and 40 mM MgCl2 was defined as “standard incubation conditions”; 10 mM NTP and 150 mM MgCl2 was defined as “enhanced incubation conditions”. At appropriate timepoints, aliquots were removed from the sample, quenched into stop solution (80% formamide, 1× TB [89 mM each Tris and boric acid, pH 8.3], and 50 mM EDTA containing 0.025% bromophenol blue and xylene cyanol) and stored at −20° C. prior to analysis. Samples were separated by 20% denaturing PAGE at 30 W for 115 minutes and imaged with a PHOSPHORIMAGER. The resulting data were fit to the equation yield=Y·(1−e^−kt), where k=kobs and Y=final yield.
Use of Free NTPs as Substrates. It was determined whether 10DM24 could catalyze ligation with free GTP as a substrate (see FIG. 1B), thereby transferring guanosine 5′-monophosphate (GMP) to the branch-site adenosine 2′-hydroxyl group. When RΔ, an oligoribonucleotide cofactor that corresponds to all of the remaining nucleotides of R, was added to 10DM24 along with GTP, ligation was efficient (FIG. 8; 94% yield in 5 hours and kobs 0.034 min^−1 under the standard incubation conditions of 1 mM GTP and 40 mM MgCl2 at pH 9.0, 37° C.). The RNA product with the single added guanosine at the branch-site adenosine was PAGE-purified and the identity confirmed by partial alkaline hydrolysis (50 mM NaHCO3 at 95° C. for 5 minutes) and MALDI mass spectrometry (m/z calcd. 5433, found 5437±5).

Experiment [2] has as its system 10DM24-C44T mutant deoxyribozyme. Put plainly: Ligation of NTP substrate with 10DM24 variant in which the terminal P4 nucleotide is changed C→T, cofactor RΔ. Particulars: for krel = kobs,NTP*/kobs,NTP: relative to ATP. As for the experimental part: as §1
Focus was then placed on the purine NTPs (GTP, ATP) and their derivatives. When 1 mM ATP was provided as a small molecule substrate in place of GTP using the original 10DM24 sequence and RΔ, no reaction was observed (<1% in 5 hours). […] Furthermore, the kobs increased sixteen-fold to 0.013 min^−1 under enhanced conditions with 10 mM ATP (82% yield in 3 hours).

Experiment [3] relates to 10DM24 deoxyribozyme. Put plainly: Ligation of GTP or pppGpG in presence of shorter cofactor RΔΔ. The note with it: RΔΔ cofactor, 20 mM NTP and 150 mM MgCl2, pH 9.0, 37° C. As to the method:
It was subsequently shown that a binding site for an NTP cofactor can be located adjacent to the substrate binding site. This was achieved by removing an additional nucleotide from the RΔ cofactor, forming the shorter RΔΔ cofactor which required two added nucleotides to reconstitute the complete P4 region (FIG. 10). The 10DM24-catalyzed ligation reaction of GTP in the presence of the two-nucleotide short cofactor RΔΔ was performed with the 5′-^32P-labeled RNA substrate (L) that provides the branch-site adenosine as the limiting reagent. For kinetic assays, the ratio of L:E:RΔΔ was 1:10:30 with 0.25 μM deoxyribozyme (E). For isolation of the reaction products, the ratio L:E:RΔΔ was 1:2:3 with 1.5 μM deoxyribozyme. The reaction was performed under the enhanced incubation conditions with 20 mM GTP and 150 mM MgCl2 in 100 mM CHES, pH 9.0, 150 mM NaCl, and 2 mM KCl at 37° C. for up to 7 hours. […] Both products were isolated and shown by partial alkaline hydrolysis to be branched with the connectivities A-G and A-GG (where A is the branch-site adenosine).
It was contemplated that the new A-GG product was formed by initial templated but otherwise uncatalyzed synthesis of a GG dinucleotide (i.e., pppGpG) from two GTP molecules, followed by 10DM24-catalyzed branch formation using this dinucleotide. […] The reaction was performed under the enhanced incubation conditions of 20 mM GTP and 150 mM MgCl2. […] The pppGpG dinucleotide was synthesized independently using T7 RNA polymerase (Huang, et al. (1998) supra) and led solely to the A-GG product. Although the pppGpG substrate had Kd,app of >1 mM with RΔΔ, similar to Kd,app for GTP with RΔ, the ligation reaction with pppGpG and RΔΔ had kobs six-fold higher than for the analogous reaction with GTP and RΔ (Table 8).
Similar experiments were performed using the mutant 10DM24 deoxyribozyme that has CTTT rather than CCTT in the P4 region (FIG. 11). For the DNA-catalyzed ligation of pppGpG, the 5′-^32P-labeled RNA with the branch-site adenosine (L) was incubated with the 10DM24 deoxyribozyme (E) and the cofactor RΔΔ in the ratio of L:E:RΔΔ=1:10:30 in the presence of 1 mM pppGpG and 40 mM MgCl2 in 100 mM CHES pH 9.0, 150 mM NaCl, and 2 mM KCl at 37° C. The analysis of the ligation reaction was performed as described herein. […] This is consistent with the model that pppGpG and the first two nucleotides of RΔΔ together reconstitute the P4 helix. When the ligation reaction with pppGpG was tested in the presence of RΔ instead of RΔΔ, the ligation product A-GG was formed, but with a 10-fold decrease in kobs (squares in FIG. 11). Because RΔ provides an extraneous G nucleotide when combined with pppGpG (see legend of FIG. 11), some disruption in activity is perhaps anticipated. […] This is consistent with the observation that GTP was also not a substrate for the 10DM24-C44T mutant deoxyribozyme.
The ligation reaction of pppGpG was also performed using a variety of pppGpG concentrations with the parent 10DM24 deoxyribozyme in the presence of RΔΔ and 40 mM MgCl2. In FIG. 12, the kobs values are plotted versus [pppGpG] and fit to kobs=kmax·[pppGpG]/(Kd,app+[pppGpG]). The Kd,app for pppGpG was >1 mM.

The mark [4] stands for this setting: enhanced incubation conditions: 10 mM NTP, 150 mM MgCl2, 100 mM CHES pH 9.0, 37° C.
Setting [5] is: standard incubation conditions: 1 mM NTP, 40 mM MgCl2, 100 mM CHES pH 9.0, 150 mM NaCl, 2 mM KCl, 37° C., RΔ.
Where [6] appears, read: enhanced incubation conditions: 10 mM NTP, 150 mM MgCl2, pH 9.0, 37° C.
The mark [7] stands for this setting: standard incubation conditions: 1 mM NTP, 40 mM MgCl2, pH 9.0, 37° C., RΔ, ATP series.
Where [8] appears, read: standard conditions except with 50 mM CHES.

`Nc1nc2c(ncn2COCCOP(=O)(O)OP(=O)(O)OP(=O)(O)O)c(=O)[nH]1` [G^acv-TP, acyclovir triphosphate]: in the experiment on 10DM24 deoxyribozyme [1], the “kobs diminished relative to GTP” value is about 300 fold and the “kobs,enh/kobs,std” value is reported as over 7. Moreover, in the experiment on 10DM24 deoxyribozyme [1] (enhanced incubation conditions), the “ligation yield %, 3 h” value was 14% and the “krel = kobs,NTP*/kobs,NTP” value was 0.003. Moreover, the kobs with 10DM24 deoxyribozyme [1] (setting [4]) was 0.0007 min⁻¹. Besides, in the experiment with 10DM24 deoxyribozyme [1] (standard incubation conditions), the “ligation yield %, 5 h” value is listed as under 1% and the “krel = kobs,NTP*/kobs,NTP” value is reported as under 0.0003. In addition, in the experiment on 10DM24 deoxyribozyme [1] (setting [5]), the kobs is under 0.0001 min⁻¹.

As to `Nc1nc(N)c2ncn(C3OC(COP(=O)(O)OP(=O)(O)OP(=O)(O)O)C(O)C3O)c2n1` (stereo not shown) [DTP, 2,6-diaminopurine ribonucleoside triphosphate], in experiment [2] (ATP series), the “kobs,enh/kobs,std” value is 8. In addition, the “ligation yield %, 3 h” value in experiment [2] (enhanced incubation conditions) came out at 90%. Moreover, the kobs in experiment [2] (setting [6]) was determined as 0.027 min⁻¹; in experiment [2] (setting [7]), 0.0032 min⁻¹. In addition, the “krel = kobs,NTP*/kobs,NTP” value in experiment [2] (enhanced incubation conditions) turned out to be 2.1; in experiment [2] (standard incubation conditions) it was 4.0. Further, in experiment [2] (standard incubation conditions), the “ligation yield %, 5 h” value turned out to be 68%.

Turning to `Nc1ncnc2c1ncn2[C@H]1CC[C@@H](COP(=O)(O)OP(=O)(O)OP(=O)(O)O)O1` [ddATP], in experiment [2] (standard incubation conditions), the “ligation yield %, 5 h” value is 25% and the “krel = kobs,NTP*/kobs,NTP” value is reported as 0.87. Besides, in experiment [2] (setting [7]), the kobs came to 0.0007 min⁻¹.

In the case of `Nc1ncnc2c1ncn2[C@H]1C[C@H](O)[C@@H](COP(=O)(O)OP(=O)(O)OP(=O)(O)O)O1` [dATP], in experiment [2] (ATP series), the “kobs,enh/kobs,std” value came out at 19. In experiment [2] (enhanced incubation conditions), the “ligation yield %, 3 h” value was found to be 65% and the “krel = kobs,NTP*/kobs,NTP” value turned out to be 0.56. Besides, in experiment [2] (setting [6]), the kobs is 0.007 min⁻¹. In addition, in experiment [2] (standard incubation conditions), the “ligation yield %, 5 h” value turned out to be 17% and the “krel = kobs,NTP*/kobs,NTP” value is 0.50. For the same compound, the kobs in experiment [2] (setting [7]) is 0.0004 min⁻¹.

With `Nc1nc2c(ncn2[C@H]2CC[C@@H](COP(=O)(O)OP(=O)(O)OP(=O)(O)O)O2)c(=O)[nH]1` [ddGTP, 2′,3′-dideoxyGTP], in the experiment with 10DM24 deoxyribozyme [1] (setting [8]), the kobs is 0.013 min⁻¹; the “ligation yield %, 5 h” value came to 85%; the “krel = kobs,NTP*/kobs,NTP” value was determined as 0.38.

For C2-C3-cleaved GTP [G^clv-TP], in the experiment on 10DM24 deoxyribozyme [1], the “kobs diminished relative to GTP” value was “approximately 1000 fold” and the “kobs,enh/kobs,std” value was over 3. Also, in the experiment with 10DM24 deoxyribozyme [1] (enhanced incubation conditions), the “ligation yield %, 3 h” value stood at 6% and the “krel = kobs,NTP*/kobs,NTP” value is 0.001. Moreover, the kobs with 10DM24 deoxyribozyme [1] (setting [4]) is 0.0003 min⁻¹. Also, in the experiment with 10DM24 deoxyribozyme [1] (standard incubation conditions), the “ligation yield %, 5 h” value was under 1% and the “krel = kobs,NTP*/kobs,NTP” value is under 0.0003. The kobs in the experiment with 10DM24 deoxyribozyme [1] (setting [5]) was under 0.0001 min⁻¹.

Take `Nc1nc2c(ncn2[C@H]2C[C@H](O)[C@@H](COP(=O)(O)OP(=O)(O)OP(=O)(O)O)O2)c(=O)[nH]1` [dGTP, 2′-deoxyGTP]: the “kobs,enh/kobs,std” value with 10DM24 deoxyribozyme [1] came out at 4. Besides, in the experiment with 10DM24 deoxyribozyme [1] (enhanced incubation conditions), the “ligation yield %, 3 h” value is listed as 90% and the “krel = kobs,NTP*/kobs,NTP” value worked out at 0.31. For the same compound, the kobs in the experiment on 10DM24 deoxyribozyme [1] (setting [4]) turned out to be 0.081 min⁻¹. Besides, in the experiment with 10DM24 deoxyribozyme [1] (standard incubation conditions), the “ligation yield %, 5 h” value was 88% and the “krel = kobs,NTP*/kobs,NTP” value came out at 0.60. Besides, the kobs with 10DM24 deoxyribozyme [1] (setting [5]) stood at 0.020 min⁻¹. Besides, the reaction products formed entry in the experiment on 10DM24 deoxyribozyme [3] was “only the single-nucleotide addition product”.

`Nc1ncnc2c1ncn2[C@@H]1O[C@H](COP(=O)(O)OP(=O)(O)OP(=O)(O)O)[C@@H](O)[C@@H]1O` [ara-ATP, arabino-ATP]: the “kobs,enh/kobs,std” value in experiment [2] (ATP series) was determined as 13. For the same compound, in experiment [2] (enhanced incubation conditions), the “ligation yield %, 3 h” value amounted to 44% and the “krel = kobs,NTP*/kobs,NTP” value was determined as 0.41. Further, in experiment [2] (setting [6]), the kobs was 0.005 min⁻¹. Moreover, in experiment [2] (standard incubation conditions), the “ligation yield %, 5 h” value is recorded as 13% and the “krel = kobs,NTP*/kobs,NTP” value is listed as 0.50. Moreover, the kobs in experiment [2] (setting [7]) stood at 0.0004 min⁻¹.

Consider `O=P(O)(O)OP(=O)(O)OP(=O)(O)OC[C@H]1O[C@@H](n2cnc3c(O)ncnc32)[C@H](O)[C@@H]1O` [ITP, inosine triphosphate], for which the “kobs,enh/kobs,std” value with 10DM24 deoxyribozyme [1] turned out to be 21. In the experiment with 10DM24 deoxyribozyme [1] (enhanced incubation conditions), the “ligation yield %, 3 h” value stood at 84% and the “krel = kobs,NTP*/kobs,NTP” value came to 0.05. Also, the kobs in the experiment on 10DM24 deoxyribozyme [1] (setting [4]) stood at 0.014 min⁻¹. In the experiment on 10DM24 deoxyribozyme [1] (standard incubation conditions), the “ligation yield %, 5 h” value came to 25% and the “krel = kobs,NTP*/kobs,NTP” value was found to be 0.02. Further, in the experiment with 10DM24 deoxyribozyme [1] (setting [5]), the kobs is 0.0007 min⁻¹.

Take `Nc1ncc2ncn([C@H]3C[C@H](O)[C@@H](COP(=O)(O)OP(=O)(O)OP(=O)(O)O)O3)c2n1` [d2AP-TP]: the “krel = kobs,NTP*/kobs,NTP” value in the experiment with 10DM24 deoxyribozyme [1] (enhanced incubation conditions) is 0.003; with 10DM24 deoxyribozyme [1] (standard incubation conditions), under 0.0003; in experiment [2] (enhanced incubation conditions), 0.06; in experiment [2] (standard incubation conditions) it was under 0.1. Besides, the “kobs,enh/kobs,std” value in experiment [2] (ATP series) was over 8. Also, the “ligation yield %, 3 h” value in experiment [2] (enhanced incubation conditions) was determined as 17%. In addition, the kobs in experiment [2] (setting [6]) was 0.0008 min⁻¹; in experiment [2] (standard conditions with 5′-OH-RΔ) it was <0.0001^[c] min^−1. Further, in experiment [2] (standard incubation conditions), the “ligation yield %, 5 h” value was under 1%.
